# Like-named read-outs stand apart in the source and are kept apart here.
# Assays:
# protein kinases = settings: judged by similar criteria; cited from earlier work
# Pim1 = Pim1 (Homo sapiens, UniProt P11309); assay: In vitro selection of DNA-templated macrocycle library against GST-fused target; format: binding; settings: one round of selection; DNA-linked library member
# Text: (§1) Multiple representatives were chosen from each protein class so that we could compare selection results within protein families. In total, we performed a single round of in vitro selection against 36 protein targets. Additionally, we also performed a selection for binding to GST (with no fused target protein) immobilized on glutathione-linked resin. Although successive rounds of selection (with or without DNA amplification and translation between rounds) can multiply net enrichment factors,^29 we hypothesized that recent advances in ultra high-throughput DNA sequencing would enable even modest enrichment factors to be robustly detected, and the findings in this work are the result of a single round of selection on each protein target.
# (§2) Following in vitro selection, DNA templates linked to target-binding macrocycles were amplified in PCR reactions using primers containing “barcode” sequences specific to each selection (FIG. 3). We also amplified DNA templates from eight aliquots of the unselected library to determine the initial abundance of each library member. A set of 12 five-base barcodes used in pairwise combinations provided sufficient encoding complexity for one round of selection against 36 protein targets, a control selection against immobilized GST, and eight pre-selection library samples (Table 3). These barcodes were designed to differ by at least three bases from one another so that common DNA sequencing errors would not preclude barcode assignment. After affinity selection and PCR amplification, barcoded samples were combined in equimolar amounts and submitted for ultra high-throughput DNA sequencing^46,47 as a single sample.
# (§3) To rapidly identify the DNA-linked macrocycles that survived target affinity selection, we used Solexa (Illumina) DNA sequencing technology.^48 Because standard Solexa sequencing read lengths at the time of this experiment were shorter than the length of our barcoded library templates (84 base pairs), the paired-end sequencing method, which provides both forward and reverse sequencing reads for each template, was used. We created a PERL computer program to analyze the large amount of data emerging from high-throughput sequencing. First, forward and reverse sequence reads were merged to give complete template sequences (FIG. 4a). Each complete DNA sequence was converted into a combination of a barcode (selection identity) and three codons (building block identities). Template sequences were then binned by barcode to deconvolute the results of each selection. The abundance fraction of each library member was determined within each selection by counting the number of corresponding DNA sequence occurrences and dividing by the total number of interpretable sequence reads for that selection. Finally, enrichment factors for each library member were computed by dividing post-selection abundance fraction by pre-selection abundance fraction. In total, we received 25.6 million paired forward and reverse sequence reads from two Solexa sequencing runs. Of these, all four codons (which require five out of six correct bases per codon for the building blocks, and three out of three correct bases per codon for the scaffold^24) and the selection barcode (which requires four out of five correct bases) could be conclusively assigned for 12.4 million sequences. As a result, we obtained ˜200,000 sequence reads for each selection, and 1.7 million sequence reads of the pre-selection library.
# (§4) In vitro selections of the 13,824-membered library were conducted exactly as described above for the positive control selections. For each selection, 5 pmol of library were used. PCR amplification of selection survivors was performed with 5′-barcoded forward and reverse primers. Barcoded PCR amplicons were quantitated using Picogreen dsDNA quantitation reagent (Invitrogen), mixed in equimolar amounts, and submitted for high-throughput DNA sequencing.
# MAPKAPK2 = MAPKAPK2 (Homo sapiens, UniProt P49137); assay: as above; format: binding; settings: one round of selection; DNA-linked library member
# Text: as §1, §2, §3, §4
# HCK [1] = molecular target: T1, HCK (Homo sapiens, UniProt P08631); assay: Continuous spectrophotometric kinase activity assay; format: biochemical; set-up: Kinase domain constructs of human c-Abl (residues 229-512), chicken c-Src (residues 251-533 and residues 83-533), murine Lck (residues 227-509), and human Hck (residues 166-445); made in house
# Text: (§5) Kinase domain constructs of human c-Abl (residues 229-512), chicken c-Src (residues 251-533 and residues 83-533), murine Lck (residues 227-509), and human Hck (residues 166-445) were expressed as previously described (Seeliger, Young et al. 2005; Seeliger, Nagar et al. 2007; the entire contents of each of which are incorporated by reference herein). Mutations were introduced into chicken c-Src (residues 251-533) (T338I, C277Q, L297M) by site-directed mutagenesis and verified by DNA sequencing.
# (§6) In vitro kinase inhibition assays were performed using either a continuous spectrophotometric assay or a FRET-based endpoint assay.
# (§7) The original characterization of kinase inhibition was performed with a commercial kinase assay that relies on a fluorescently labeled peptide kinase substrate (Z-LYTE, Invitrogen). For further characterization, a continuous spectrophotometric kinase activity assay was employed that is easily adapted to different substrate peptides as well as a wider range of peptide and ATP concentrations.
# Target sequence in this assay (P08631 262-515 limits assumed): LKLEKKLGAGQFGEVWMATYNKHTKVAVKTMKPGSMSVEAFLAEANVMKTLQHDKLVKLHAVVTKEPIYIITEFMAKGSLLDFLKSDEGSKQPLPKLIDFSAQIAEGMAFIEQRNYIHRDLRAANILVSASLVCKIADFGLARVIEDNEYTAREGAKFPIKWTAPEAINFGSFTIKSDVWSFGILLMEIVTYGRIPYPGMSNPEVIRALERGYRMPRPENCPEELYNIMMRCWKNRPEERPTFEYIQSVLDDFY
# Lck = molecular target: T2, Lck (Mus musculus, UniProt P06240); assay: as above; format: biochemical, murine
# T2 construct: murine Lck (residues 227-509); made in house
# Text: as §5, §6, §7
# Src kinase domain = molecular target: T3, Src kinase domain (Gallus gallus, UniProt P00523); assay: Fluorescence anisotropy binding assay; set-up: species or system chicken; settings: fluorescein-labeled macrocycle, read-out: dissociation constant (KD)
# T3 construct: chicken c-Src (residues 251-533 and residues 83-533); made in house
# Procedure: The change in fluorescence anisotropy of fluorescein-labeled MC1, MC4 and MC9 at 518 nm upon excitation at 492 nm was monitored with a HORIBA Jobin Yvon FluoroMax-4 (Edison, N.J.) spectrofluorimeter. Kinase was titrated to 0.5 μM of the fluorescently labeled macrocycle in 100 mM Tris pH 8.0, 10 mM MgCl2 at 25° C. After equilibration, the increase in the fluorescence anisotropy of the fluorescently labeled ligand was recorded and fitted against a quadratic binding equation in Kaleidagraph (Synergy Software, Reading Pa.) to yield the dissociation constant KD.
# To clarify the inhibitory mechanism of the compounds further, the binding affinity of fluorescently labeled MC1, MC4, and MC9 to Src kinase domain was determined in a fluorescence anisotropy assay (FIG. 21).
# Src kinase [2] = molecular target: T4, Src kinase (Homo sapiens, UniProt P12931); assay: Z'-LYTE kinase assay (Invitrogen), Src; format: biochemical; set-up: full-length kinase in the Z-LYTE assay vs. kinase domain in the current study; purchased Millipore
# Procedure: Nine macrocycles enriched in the Src selection (FIG. 5) and synthesized as described above were assayed in vitro for the ability to inhibit Src kinase activity. Kinase activity was assayed in the presence of varying concentrations of macrocycle using the FRET-based Z′-LYTE assay (Invitrogen).
# (§8) Src IC50 determinations and single-point inhibition measurements were performed using Invitrogen's Z′-LYTE Tyr 02 assay kit according to the manufacturer's protocols. All kinase assays were performed at ATP concentrations near KM,ATP values, except where noted otherwise. Active human Src kinase was obtained from Millipore. For kinome profiling and IC50 determinations against non-Src kinases, compounds were submitted to Invitrogen's SelectScreen Kinase Profiling Service.
# FYN = FYN (Homo sapiens, UniProt P06241); assay: SelectScreen kinase profiling; format: biochemical
# Procedure: as §8
# HCK [3] = molecular target: T1, HCK; assay: SelectScreen kinase profiling; format: biochemical
# Procedure: as §8
# Target sequence in this assay (P08631 whole entry, the tested form may be a part): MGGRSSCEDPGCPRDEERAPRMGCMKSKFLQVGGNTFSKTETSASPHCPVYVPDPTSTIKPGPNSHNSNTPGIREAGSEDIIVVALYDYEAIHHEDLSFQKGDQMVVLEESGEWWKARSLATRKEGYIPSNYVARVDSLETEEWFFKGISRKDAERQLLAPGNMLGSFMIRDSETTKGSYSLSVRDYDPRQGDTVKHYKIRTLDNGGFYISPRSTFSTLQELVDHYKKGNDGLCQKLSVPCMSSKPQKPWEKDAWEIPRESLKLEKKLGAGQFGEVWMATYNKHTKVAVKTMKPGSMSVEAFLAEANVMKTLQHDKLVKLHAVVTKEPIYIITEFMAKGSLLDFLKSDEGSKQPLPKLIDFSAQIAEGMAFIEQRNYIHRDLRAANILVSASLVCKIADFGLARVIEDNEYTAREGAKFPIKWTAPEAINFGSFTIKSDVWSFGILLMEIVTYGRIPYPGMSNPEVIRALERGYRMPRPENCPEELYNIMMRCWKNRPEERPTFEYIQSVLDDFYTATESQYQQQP
# AURKA (Aurora A) = molecular target: T5, AURKA (Aurora A) (Homo sapiens, UniProt O14965); assay: SelectScreen kinase profiling; format: biochemical
# T5 sequence (O14965 1-403): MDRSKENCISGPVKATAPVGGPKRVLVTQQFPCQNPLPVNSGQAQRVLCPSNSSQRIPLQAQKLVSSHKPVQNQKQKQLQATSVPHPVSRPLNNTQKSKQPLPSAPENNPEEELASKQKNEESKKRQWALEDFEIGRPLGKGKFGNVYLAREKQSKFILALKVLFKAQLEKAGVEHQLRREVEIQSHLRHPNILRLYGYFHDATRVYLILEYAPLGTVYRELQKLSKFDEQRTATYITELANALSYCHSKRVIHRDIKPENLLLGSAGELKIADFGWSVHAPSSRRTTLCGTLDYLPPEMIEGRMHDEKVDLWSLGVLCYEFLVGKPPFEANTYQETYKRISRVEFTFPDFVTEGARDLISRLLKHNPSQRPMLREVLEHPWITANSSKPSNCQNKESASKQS
# Procedure: as §8
# FGR = FGR (Homo sapiens, UniProt P09769); assay: SelectScreen kinase profiling; format: biochemical; settings: Fgr; 10-point titration
# Procedure: as §8
# RET = RET (Homo sapiens, UniProt P07949); assay: SelectScreen kinase profiling; format: biochemical; settings: 10-point titration
# Procedure: as §8
# AURKB (Aurora B) = AURKB (Aurora B) (Homo sapiens, UniProt Q96GD4); assay: SelectScreen kinase profiling; format: biochemical
# Procedure: as §8
# ABL1 = ABL1 (Homo sapiens, UniProt P00519); assay: SelectScreen kinase profiling; format: biochemical
# Procedure: as §8
# Abl = molecular target: T6, Abl (Homo sapiens, UniProt P00519); assay: Continuous spectrophotometric kinase activity assay; format: biochemical
# T6 construct: human c-Abl (residues 229-512); made in house
# T6 sequence (P00519 229-512): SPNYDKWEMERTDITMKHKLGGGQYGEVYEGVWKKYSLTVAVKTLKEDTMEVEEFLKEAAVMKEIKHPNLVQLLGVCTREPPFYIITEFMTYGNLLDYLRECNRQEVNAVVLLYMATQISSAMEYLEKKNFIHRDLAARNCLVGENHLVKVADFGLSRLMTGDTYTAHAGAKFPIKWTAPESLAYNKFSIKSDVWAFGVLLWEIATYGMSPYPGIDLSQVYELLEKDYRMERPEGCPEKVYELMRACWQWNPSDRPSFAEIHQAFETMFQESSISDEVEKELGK
# Text: as §5, §6, §7
# [4] = molecular target: T7, Src kinase domain (chicken c-Src residues 251-533) (Gallus gallus, UniProt P00523); assay: as above; format: biochemical; settings: for IC50: Src kinase domain
# T7 construct: chicken c-Src (residues 251-533 and residues 83-533); made in house
# Text: as §5, §6, §7
# [5] = test system: panel of 58 commercially available human protein kinases; assay: Kinase selectivity panel, Invitrogen SelectScreen; format: biochemical
# Procedure: Macrocycle cis-A11-B1-C5-D7 was assayed at 50 μM against a representative panel of 58 commercially available human protein kinases including all nine mammalian Src family kinases (Table 8).
# as §8
# Src kinase [6] = molecular target: T4, Src kinase; assay: In vitro selection of DNA-templated macrocycle library against GST-fused target; format: binding; settings: one round of selection; DNA-linked library member
# Text: as §1, §2, §3, §4
# [7] = molecular target: BcLxL (1-209, Δ45-84, N-terminal GST-fused) (UniProt Q07817); assay: single round of affinity selection of the DNA-linked peptide on GST-Bcl-xL on glutathione beads; restriction digestion
# [8] = 5 μM ATP, 100 μM Src optimal peptide
# [9] = 5 μM ATP, 300 μM Src optimal peptide
# [10] = 250 μM ATP, 300 μM Src optimal peptide
# Chain of Pim1 (P11309 whole entry, the tested form may be a part): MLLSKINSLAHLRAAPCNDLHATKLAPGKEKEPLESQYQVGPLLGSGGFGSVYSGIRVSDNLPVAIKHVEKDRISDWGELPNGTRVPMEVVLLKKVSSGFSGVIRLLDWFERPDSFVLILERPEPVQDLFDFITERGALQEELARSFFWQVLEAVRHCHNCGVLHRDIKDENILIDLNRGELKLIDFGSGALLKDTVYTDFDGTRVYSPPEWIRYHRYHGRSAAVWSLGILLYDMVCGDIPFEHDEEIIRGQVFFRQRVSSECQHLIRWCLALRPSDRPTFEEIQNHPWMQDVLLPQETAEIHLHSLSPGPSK
# Chain of MAPKAPK2 (P49137 whole entry): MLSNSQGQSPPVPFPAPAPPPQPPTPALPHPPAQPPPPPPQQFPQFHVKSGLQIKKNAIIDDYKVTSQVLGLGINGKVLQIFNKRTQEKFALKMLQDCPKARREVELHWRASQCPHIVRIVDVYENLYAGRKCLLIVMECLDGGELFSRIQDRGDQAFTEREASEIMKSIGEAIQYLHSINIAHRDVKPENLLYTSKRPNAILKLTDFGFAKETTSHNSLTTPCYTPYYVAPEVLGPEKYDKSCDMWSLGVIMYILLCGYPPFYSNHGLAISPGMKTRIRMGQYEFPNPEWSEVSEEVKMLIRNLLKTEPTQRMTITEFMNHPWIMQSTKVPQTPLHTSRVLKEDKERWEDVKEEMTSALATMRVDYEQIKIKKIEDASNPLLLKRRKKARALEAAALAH
# T4 sequence (P12931 whole entry, the tested form may be a part): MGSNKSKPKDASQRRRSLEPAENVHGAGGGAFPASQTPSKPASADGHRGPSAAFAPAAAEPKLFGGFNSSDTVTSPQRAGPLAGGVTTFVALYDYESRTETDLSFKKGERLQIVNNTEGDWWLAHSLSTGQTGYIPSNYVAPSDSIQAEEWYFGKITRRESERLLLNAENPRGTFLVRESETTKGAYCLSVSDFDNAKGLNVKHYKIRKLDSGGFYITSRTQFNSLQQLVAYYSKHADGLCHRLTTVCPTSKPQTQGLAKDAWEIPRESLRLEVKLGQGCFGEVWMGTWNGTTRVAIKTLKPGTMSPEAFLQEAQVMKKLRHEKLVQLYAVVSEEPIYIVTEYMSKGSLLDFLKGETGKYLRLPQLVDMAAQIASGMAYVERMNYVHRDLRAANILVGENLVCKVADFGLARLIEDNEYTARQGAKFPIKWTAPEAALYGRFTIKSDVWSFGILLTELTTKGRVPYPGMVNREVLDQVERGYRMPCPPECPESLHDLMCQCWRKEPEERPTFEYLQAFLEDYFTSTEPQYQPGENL
# T2 sequence (P06240 227-509): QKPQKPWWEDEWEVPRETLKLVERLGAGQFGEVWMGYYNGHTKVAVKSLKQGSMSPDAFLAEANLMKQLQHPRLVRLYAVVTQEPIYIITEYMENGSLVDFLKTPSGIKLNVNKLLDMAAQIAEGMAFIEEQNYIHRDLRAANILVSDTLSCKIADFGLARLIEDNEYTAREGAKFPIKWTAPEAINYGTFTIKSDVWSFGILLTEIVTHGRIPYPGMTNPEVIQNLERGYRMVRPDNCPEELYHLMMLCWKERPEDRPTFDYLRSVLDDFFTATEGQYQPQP
# Chain of ABL1 (P00519 whole entry): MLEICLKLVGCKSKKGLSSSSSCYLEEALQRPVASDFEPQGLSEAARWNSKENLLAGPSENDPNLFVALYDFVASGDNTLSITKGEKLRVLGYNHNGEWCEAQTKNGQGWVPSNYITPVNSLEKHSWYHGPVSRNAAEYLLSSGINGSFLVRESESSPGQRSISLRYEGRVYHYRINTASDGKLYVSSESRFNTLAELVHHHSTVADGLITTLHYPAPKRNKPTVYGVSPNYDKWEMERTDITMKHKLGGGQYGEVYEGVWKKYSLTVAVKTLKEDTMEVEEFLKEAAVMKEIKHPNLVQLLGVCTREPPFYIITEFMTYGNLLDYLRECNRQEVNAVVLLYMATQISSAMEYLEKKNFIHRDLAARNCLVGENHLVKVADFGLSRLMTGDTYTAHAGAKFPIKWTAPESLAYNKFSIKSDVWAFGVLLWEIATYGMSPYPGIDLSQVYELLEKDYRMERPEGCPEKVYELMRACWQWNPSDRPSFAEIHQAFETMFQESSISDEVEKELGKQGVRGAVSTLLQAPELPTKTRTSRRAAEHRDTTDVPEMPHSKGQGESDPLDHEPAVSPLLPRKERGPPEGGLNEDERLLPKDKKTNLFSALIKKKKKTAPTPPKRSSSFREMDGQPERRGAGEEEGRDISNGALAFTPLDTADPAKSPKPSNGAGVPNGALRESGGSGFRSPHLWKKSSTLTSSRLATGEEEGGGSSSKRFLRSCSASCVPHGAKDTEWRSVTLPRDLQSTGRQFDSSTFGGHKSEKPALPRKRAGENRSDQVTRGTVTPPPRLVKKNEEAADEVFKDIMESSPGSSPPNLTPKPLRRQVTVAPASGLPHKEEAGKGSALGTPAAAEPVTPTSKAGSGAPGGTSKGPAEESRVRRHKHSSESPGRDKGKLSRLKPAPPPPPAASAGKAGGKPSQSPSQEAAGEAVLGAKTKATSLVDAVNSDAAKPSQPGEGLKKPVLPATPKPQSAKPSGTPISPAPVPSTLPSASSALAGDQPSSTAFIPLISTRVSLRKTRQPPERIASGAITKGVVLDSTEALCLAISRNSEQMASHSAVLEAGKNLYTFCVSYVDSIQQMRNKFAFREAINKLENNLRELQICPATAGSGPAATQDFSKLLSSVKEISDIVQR
# Chain of BcLxL (1-209, Δ45-84, N-terminal GST-fused) (Q07817 other isoform, or with tags, fused parts or gaps mutant): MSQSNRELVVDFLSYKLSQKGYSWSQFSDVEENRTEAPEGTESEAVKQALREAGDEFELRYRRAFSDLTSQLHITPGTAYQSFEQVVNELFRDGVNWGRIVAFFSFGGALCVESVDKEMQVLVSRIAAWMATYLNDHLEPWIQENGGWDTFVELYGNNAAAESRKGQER
# Chain of FYN (P06241 whole entry): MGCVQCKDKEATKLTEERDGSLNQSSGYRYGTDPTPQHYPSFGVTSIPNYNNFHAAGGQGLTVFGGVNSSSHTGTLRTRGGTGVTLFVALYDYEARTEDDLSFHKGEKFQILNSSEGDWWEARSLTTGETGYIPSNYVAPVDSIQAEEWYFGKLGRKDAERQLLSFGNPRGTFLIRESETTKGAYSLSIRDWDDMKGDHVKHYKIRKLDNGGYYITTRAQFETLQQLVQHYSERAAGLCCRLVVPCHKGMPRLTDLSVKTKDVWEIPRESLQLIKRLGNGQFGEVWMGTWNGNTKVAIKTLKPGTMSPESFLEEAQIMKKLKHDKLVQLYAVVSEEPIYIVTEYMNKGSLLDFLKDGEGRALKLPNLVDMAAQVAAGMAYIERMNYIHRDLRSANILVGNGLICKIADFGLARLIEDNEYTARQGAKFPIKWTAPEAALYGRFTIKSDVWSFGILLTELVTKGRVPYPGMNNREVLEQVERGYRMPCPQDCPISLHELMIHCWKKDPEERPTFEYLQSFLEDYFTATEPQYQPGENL
# Chain of FGR (P09769 whole entry): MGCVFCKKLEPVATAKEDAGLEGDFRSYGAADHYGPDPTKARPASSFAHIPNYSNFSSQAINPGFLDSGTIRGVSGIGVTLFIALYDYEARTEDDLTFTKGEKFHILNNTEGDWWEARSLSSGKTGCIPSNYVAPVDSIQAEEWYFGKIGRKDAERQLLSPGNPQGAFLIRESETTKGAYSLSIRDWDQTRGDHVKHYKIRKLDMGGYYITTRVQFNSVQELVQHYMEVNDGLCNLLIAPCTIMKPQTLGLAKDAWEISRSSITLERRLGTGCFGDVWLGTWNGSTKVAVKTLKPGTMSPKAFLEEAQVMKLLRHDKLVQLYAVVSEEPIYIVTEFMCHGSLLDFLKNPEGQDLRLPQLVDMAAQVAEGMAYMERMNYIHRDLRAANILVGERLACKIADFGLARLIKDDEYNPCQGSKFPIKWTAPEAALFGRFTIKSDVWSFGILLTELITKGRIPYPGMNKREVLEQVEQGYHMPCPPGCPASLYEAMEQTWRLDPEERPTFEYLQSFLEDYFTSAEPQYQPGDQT
molecule,measurement,setting,value
CN[C@@H]1C[C@H]2O[C@@](C)([C@@H]1OC)n1c3ccccc3c3c4c(c5c6ccccc6n2c5c31)C(=O)NC4 [staurosporine],selectivity score,protein kinases,0.50
NC(=O)[C@@H]1CNC(=O)[C@@H](Cc2ccc(C(=O)c3ccccc3)cc2)NC(=O)[C@H](CC2CCCCC2)NC(=O)[C@H](C/C=C/c2ccccc2)NC(=O)C=CC(=O)N1 [A12-B8-C10-D8],enrichment upon selection for binding Pim1,Pim1,6 fold
same,enrichment upon selection for binding MAPKAPK2,MAPKAPK2,2.5 fold
NC(=O)[C@@H]1CCNC(=O)C=CC(=O)N[C@@H](C/C=C/c2ccccc2)C(=O)N[C@@H](CC2CCCCC2)C(=O)N[C@H](Cc2ccc(C(=O)c3ccccc3)cc2)C(=O)N1 [A12-B8-C10-D3],enrichment upon selection for binding Pim1,Pim1,3.5 fold
same,enrichment upon selection for binding MAPKAPK2,MAPKAPK2,3 fold
NC(=O)[C@@H]1CNC(=O)C=CC(=O)N[C@@H](C/C=C/c2ccccc2)C(=O)N[C@@H](CC2CCCCC2)C(=O)N[C@H](Cc2ccc(C(=O)c3ccccc3)cc2)C(=O)N1 [A12-B8-C10-D4],enrichment upon selection for binding Pim1,Pim1,10 fold
same,enrichment upon selection for binding MAPKAPK2,MAPKAPK2,3 fold
NC(=O)[C@@H]1CCNC(=O)[C@H](CCCNC(=O)c2cnccn2)NC(=O)[C@H](Cc2ccco2)NC(=O)[C@H](CC2CC2)NC(=O)/C=C\C(=O)N1 [cis-A11-B1-C5-D7],IC50,HCK [1]; [8],> 100 µM
same,IC50,HCK [1]; [9],> 100 µM
same,IC50,HCK [1]; [10],> 100 µM
same,IC50,Lck; [8],> 100 µM
same,IC50,Lck; [9],> 100 µM
same,IC50,Lck; [10],> 100 µM
same,Kd,Src kinase domain; 250 μM AMP-PNP,3.3 µM
same,Kd,Src kinase domain; no competitor,2.1 µM
same,IC50,"Src kinase [2]; Z'-LYTE, ATP near KM",0.96 µM
same,mode of Src inhibition,Src kinase [2]; apparent KM for ATP versus macrocycle concentration,ATP-competitive
same,selectivity for Src over Fyn,FYN,> 50 fold
same,selectivity for Src over Hck,HCK [3],> 50 fold
same,IC50,"AURKA (Aurora A); Aurora A, 10-point titration",1.7 µM
same,IC50,FGR,4 µM
same,IC50,RET,5.7 µM
same,selectivity for Aurora A over Aurora B,AURKB (Aurora B),> 50 fold
same,selectivity for Src over Abl kinase,ABL1,> 50 fold
same,IC50,Abl; [8],> 100 µM
same,IC50,Abl; [9],> 100 µM
same,IC50,Abl; [10],> 100 µM
same,IC50,[4]; [8],16 µM
same,IC50,[4]; [9],26 µM
same,IC50,[4]; [10],89 µM
same,increase in IC50 upon increasing substrate peptide 3-fold to 300 μM,[4]; Src optimal substrate peptide 100 to 300 μM,50%
same,selectivity for Src over all remaining Src-family kinases with the exception of Fgr,[5],> 10 fold
same,selectivity score,[5]; fraction of non-target kinases with IC50 within 10-fold of Src IC50 (960 nM),0.05
NC(=O)[C@@H]1CCNC(=O)[C@H](CCCNC(=O)c2cnccn2)NC(=O)[C@H](Cc2ccco2)NC(=O)[C@H](CC2CC2)NC(=O)C=CC(=O)N1 [Macrocycle A11-B1-C5-D7],enrichment factor after selection against Src kinase,Src kinase [6],62 fold
same,difference in potency between cis and trans stereoisomers (Src),Src kinase [2],~10 fold
same,selectivity for Aurora A among the Aurora family,AURKA (Aurora A),> 100 fold
same,selectivity for Src over Abl kinase,ABL1,> 50 fold
Bak peptide (DNA-linked),Enrichment Factor,[7],200
